EP2848615A1, “New pyrazole derivatives as CRAC channel modulators” (Almirall, S.A., priority 2013, dated 2015)

Legend:
Jurkat E6-1 cells [1] = assay: In vitro Assay of Cytokine Release from T Cells (PHA-stimulated IL-2, ELISA); assay type: cell-based; conditions: Homo sapiens, PHA 20 µg/ml, 20 hours, IL-2 by ELISA, read-out: Jurkat IL2 IC50
Method: In vitro Assay of Cytokine Release from T Cells
Jurkat E6-1 cells were obtained from American Type Culture Collection (ATCC) and maintained in complete medium with 10% fetal bovine serum (FBS) at 37°C/5%CO2. Cells were plated in 100 µL of Dubelcco's Modified Eagle Medium (DMEM) with 1% FBS in a 96 well plate at a density of 1x10^6 cells/well and 50 µL of test compound was added. Cells were then stimulated by the addition of 50 µL of phytohemagglutinin (PHA) (final concentration 20 µg/ml) and incubated at 37°C/5%CO2 for 20 hours. On the following day, the supernatants were collected and assayed for IL-2 levels by ELISA according to the manufacturer's protocols. The IC50 value was calculated as the concentration at which 50% of secreted IL-2 in vehicle is inhibited.

Jurkat E6-1 cells [2] = assay: Fluorescent Calcium Flux Assay (thapsigargin store depletion, FLIPR Calcium 5 dye); assay type: cell-based; conditions: Homo sapiens, Thapsigargin 10µM, 2mM final calcium concentration, read-out: Ca^2+ flux IC50
Method: Fluorescent Calcium Flux Assay
Jurkat E6-1 cells were obtained from ATCC (number TIB-152™) and maintained as ATCC recommend; in medium RPMI-1640 with 10% FBS at 37°C and 5% CO2.
Before the assay, Jurkat cells were grown at a density of 2 millions cells/ml in cell culture media (RPMI with 10% FBS) in a T-175 flask at 37°C and 5% CO2.
The day of the assay, cells were harvested by centrifugation (5 minutes at 1500 rpm) and the pellet were suspended in Ca^2+ free assay buffer (HBSS w/o Ca^2+ and Mg ^2+, 20mM Hepes and 1 mM MgCl2, pH 7.4) at a density of 5 million cells/ml.
Calcium depletion was initiated by the addition to the cell suspension of Thapsigarguin at a final assay concentration of 10µM. 20µl of the cellular suspension containing Thapsigargin (100.000 cells/well) were plated into 384 well plates (corning 3711) and incubated at RT for 15 minutes.
Test compounds were diluted in DMSO 100% to get a 10^-2M stock solution and serial dilutions 1/3 were performed in the same solvent. Then, 20µl of test compounds, diluted 75 times in Ca^2+ free assay buffer, were added to the cells and incubated at RT for 1h.
Once this incubation was completed, 5 µl of dye solution (FLIPR Calcium 5 Express Kit, Molecular Devices), prepared as Molecular Devices recommend, were added into the assay plates followed by an extra incubation period of 1 hour at room temperature. After the second incubation period, assay plates were placed into the FLIPR Tetra from Molecular Devices. Fluorescence was measured at a wavelength of 525nm after the dye excitation at 485nm. The initial baseline was measured during 20 seconds, and then 8µl of a 13mM Calcium solution in assay buffer were added (2mM final calcium concentration) except for basal wells, where assay buffer without calcium was added. At this time, changes in the cellular fluorescent were measured for an extra 80 seconds.
Peak and base line were taken for the calculation of the ratio (Peak/Base Line). Total, basal and compound well ratio values were used to calculate %Inhibition.

IC50 (Jurkat E6-1 cells [1])	IC50 (Jurkat E6-1 cells [2])	SMILES
130 nM	332 nM	Cn1nc(C(F)(F)F)cc1NC(=O)c1cc(-c2c(F)cccc2Cl)[nH]n1 [Example 1, 5-(2-chloro-6-fluorophenyl)-N-[1-methyl-3-(trifluoromethyl)-1H-pyrazol-5-yl]-1H-pyrazole-3-carboxamide]
62 nM	135 nM	COc1ccc(OC)c(NC(=O)c2cc(-c3c(F)cccc3Cl)[nH]n2)c1 [Example 5, 5-(2-chloro-6-fluorophenyl)-N-(2,5-dimethoxyphenyl)-1H-pyrazole-3-carboxamide]
410 nM	559 nM	Cn1nc(-c2ccccc2)cc1NC(=O)c1cc(-c2c(F)cccc2Cl)[nH]n1 [Example 6, 5-(2-chloro-6-fluorophenyl)-N-(1-methyl-3-phenyl-1H-pyrazol-5-yl)-1H-pyrazole-3-carboxamide]
